Reference: ChEMBL document CHEMBL1147209, “Relationship between quantum-chemical descriptors of proton dissociation and experimental acidity constants of various hydroxylated coumarins. Identification of the biologically active species for xanthine oxidase inhibition” (Eur J Med Chem, 2007)

Biological target: Xanthine dehydrogenase/oxidase (Homo sapiens, UniProt P47989)
Test: Inhibition of xanthine oxidase; call rule not given here

Sequence of Xanthine dehydrogenase/oxidase (P47989 whole entry): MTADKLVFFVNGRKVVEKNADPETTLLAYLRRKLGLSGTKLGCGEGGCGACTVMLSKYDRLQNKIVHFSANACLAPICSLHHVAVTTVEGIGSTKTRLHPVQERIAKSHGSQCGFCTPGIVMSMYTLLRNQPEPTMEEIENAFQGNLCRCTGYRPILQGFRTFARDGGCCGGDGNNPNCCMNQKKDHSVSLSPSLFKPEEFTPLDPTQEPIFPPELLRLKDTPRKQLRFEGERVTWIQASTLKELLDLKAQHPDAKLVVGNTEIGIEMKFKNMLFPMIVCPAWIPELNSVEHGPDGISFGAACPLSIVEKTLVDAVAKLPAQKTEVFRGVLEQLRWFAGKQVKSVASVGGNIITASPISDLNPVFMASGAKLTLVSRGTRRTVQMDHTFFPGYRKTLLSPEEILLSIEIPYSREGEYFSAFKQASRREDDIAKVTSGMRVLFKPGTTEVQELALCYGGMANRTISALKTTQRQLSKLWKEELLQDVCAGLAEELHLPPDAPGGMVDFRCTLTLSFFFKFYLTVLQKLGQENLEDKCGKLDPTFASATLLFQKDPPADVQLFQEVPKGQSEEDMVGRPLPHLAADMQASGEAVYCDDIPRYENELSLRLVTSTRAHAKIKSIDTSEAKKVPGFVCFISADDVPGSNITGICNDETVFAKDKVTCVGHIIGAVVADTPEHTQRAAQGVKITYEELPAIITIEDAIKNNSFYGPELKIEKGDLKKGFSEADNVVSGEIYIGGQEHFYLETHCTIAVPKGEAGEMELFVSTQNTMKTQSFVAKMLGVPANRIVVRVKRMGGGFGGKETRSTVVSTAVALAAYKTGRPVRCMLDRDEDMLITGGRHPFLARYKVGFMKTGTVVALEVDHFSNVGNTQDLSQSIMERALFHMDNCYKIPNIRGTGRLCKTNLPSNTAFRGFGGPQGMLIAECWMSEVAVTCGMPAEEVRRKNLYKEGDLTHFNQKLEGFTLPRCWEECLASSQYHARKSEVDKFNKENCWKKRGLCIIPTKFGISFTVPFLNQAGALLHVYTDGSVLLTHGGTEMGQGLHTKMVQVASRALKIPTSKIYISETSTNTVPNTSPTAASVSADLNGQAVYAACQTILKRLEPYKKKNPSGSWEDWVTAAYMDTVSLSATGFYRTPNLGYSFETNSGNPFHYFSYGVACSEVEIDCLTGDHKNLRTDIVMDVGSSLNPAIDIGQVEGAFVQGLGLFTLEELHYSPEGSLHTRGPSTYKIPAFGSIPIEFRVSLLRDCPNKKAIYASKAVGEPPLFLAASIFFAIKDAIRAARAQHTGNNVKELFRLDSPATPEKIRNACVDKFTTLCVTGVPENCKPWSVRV

IC50 [µM] | Activity | Structure (SMILES)
131 | – | O=c1oc2ccccc2cc1O [3-HYDROXYCOUMARIN]
246 | – | Cc1cc(=O)oc2cc(O)c(O)cc12 [4-METHYLESCULETIN]
390 | – | O=c1ccc2ccc(O)c(O)c2o1 [DAPHNETIN]
8.2 | – | O=c1ccc2cc(O)c(O)cc2o1 [ESCULETIN]
138 | – | COc1cc2oc(=O)ccc2cc1O [ISOSCOPOLETIN]
– | Not Active | COc1cc2ccc(=O)oc2cc1O [SCOPOLETIN]
236 | – | O=c1ccc2ccc(O)cc2o1 [UMBELLIFERONE]

Structure (SMILES) | IC50 [µM] | Activity
O=c1cc(O)c2ccccc2o1 [4-HYDROXYCOUMARINS] | 195 | –
